From patent publication US7883785B2, “Rhodium and iridium complexes” (Merck Patent GmbH, priority 2002, dated 2011)

Test: Solubilities of various complexes in toluene at 20° C.
Assay type: physicochemical
Details: table title: Solubilities of various complexes

| Solubility in toluene at 20° C. | SMILES |
| --- | --- |
| 6.3 g/L | c1ccc(-c2ccc3[c](c2)[Ir-3]24([c]5cc(-c6ccccc6)ccc5-c5cccc[n+]52)([c]2cc(-c5ccccc5)ccc2-c2cccc[n+]24)[n+]2ccccc2-3)cc1 [Compound 1, fac-Tris[2-(2-pyridinyl-κN)(5-(phenyl)phenyl)-κC]iridium(III)] |
| 25 g/L | Cc1ccccc1-c1ccc2[c](c1)[Ir-3]13([c]4cc(-c5ccccc5C)ccc4-c4cccc[n+]41)([c]1cc(-c4ccccc4C)ccc1-c1cccc[n+]13)[n+]1ccccc1-2 [Compound 2, fac-tris[2-(2-pyridinyl-κN)(5-(o-tolyl)phenyl)-κC]iridium(III)] |
| 32 g/L | Cc1ccc(C)c(-c2ccc3[c](c2)[Ir-3]24([c]5cc(-c6cc(C)ccc6C)ccc5-c5cccc[n+]52)([c]2cc(-c5cc(C)ccc5C)ccc2-c2cccc[n+]24)[n+]2ccccc2-3)c1 [Compound 7, fac-Tris[2-(2-pyridinyl-κN)(5-(2,5-dimethylphenyl)phenyl)-κC]-iridium(III)] |
| 92 g/L | CC(C)COc1ccc(-c2ccc3[c](c2)[Ir-3]24([c]5cc(-c6ccc(OCC(C)C)c(OCC(C)C)c6)ccc5-c5cccc[n+]52)([c]2cc(-c5ccc(OCC(C)C)c(OCC(C)C)c5)ccc2-c2cccc[n+]24)[n+]2ccccc2-3)cc1OCC(C)C [Compound 8, fac-Tris[2-(2-pyridinyl-κN)(5-(3,4-bis(2-methylpropoxy)phenyl)phenyl)-κC]iridium(III)] |
